Assay results reported in patent US7081460B2, “Quinazoline and quinazoline-like compounds for the treatment of integrin-mediated disorders” (Ortho-McNeil Pharmaceutical, Inc., priority 2001, dated 2006).

Columns and labels:
[1] = target: T1, Human αvβ3 (Homo sapiens, UniProt P05106+P06756); experiment: In vitro solid phase purified αvβ3 binding assay (vitronectin/αvβ3); conditions: isolated human αvβ3, 5 nM vitronectin; read-out: αvβ3 Binding IC50
T1 construct: purchased Chemicon International Inc., Temecula, Calif
T1 sequence (P06756 31-889 limits assumed): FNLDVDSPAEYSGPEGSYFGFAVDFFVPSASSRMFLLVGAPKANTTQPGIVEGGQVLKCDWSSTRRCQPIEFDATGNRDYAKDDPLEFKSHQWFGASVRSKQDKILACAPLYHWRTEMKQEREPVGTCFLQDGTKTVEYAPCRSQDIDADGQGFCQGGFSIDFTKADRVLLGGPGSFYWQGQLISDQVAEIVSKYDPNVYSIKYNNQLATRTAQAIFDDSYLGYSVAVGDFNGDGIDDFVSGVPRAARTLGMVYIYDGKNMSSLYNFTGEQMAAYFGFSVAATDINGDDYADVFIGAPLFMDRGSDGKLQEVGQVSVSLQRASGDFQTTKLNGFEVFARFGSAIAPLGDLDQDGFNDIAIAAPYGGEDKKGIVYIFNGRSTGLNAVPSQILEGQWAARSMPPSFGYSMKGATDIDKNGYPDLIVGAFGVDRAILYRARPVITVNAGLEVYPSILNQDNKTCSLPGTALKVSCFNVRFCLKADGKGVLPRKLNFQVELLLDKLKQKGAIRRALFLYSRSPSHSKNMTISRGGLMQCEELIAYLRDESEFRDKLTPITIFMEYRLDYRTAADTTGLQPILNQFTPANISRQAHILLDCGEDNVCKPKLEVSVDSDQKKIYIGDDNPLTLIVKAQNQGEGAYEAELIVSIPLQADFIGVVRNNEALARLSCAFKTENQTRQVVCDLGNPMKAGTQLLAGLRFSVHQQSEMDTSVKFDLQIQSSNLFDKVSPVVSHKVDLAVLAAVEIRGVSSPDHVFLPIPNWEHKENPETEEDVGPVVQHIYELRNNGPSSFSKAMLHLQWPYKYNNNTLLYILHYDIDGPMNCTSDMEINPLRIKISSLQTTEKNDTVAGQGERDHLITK
T1 sequence (P06756 891-1048 partner limits assumed): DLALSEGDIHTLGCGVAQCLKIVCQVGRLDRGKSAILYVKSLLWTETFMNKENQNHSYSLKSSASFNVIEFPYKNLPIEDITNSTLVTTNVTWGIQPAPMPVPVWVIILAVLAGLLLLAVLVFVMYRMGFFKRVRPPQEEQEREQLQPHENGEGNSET
T1 sequence (P05106 27-788): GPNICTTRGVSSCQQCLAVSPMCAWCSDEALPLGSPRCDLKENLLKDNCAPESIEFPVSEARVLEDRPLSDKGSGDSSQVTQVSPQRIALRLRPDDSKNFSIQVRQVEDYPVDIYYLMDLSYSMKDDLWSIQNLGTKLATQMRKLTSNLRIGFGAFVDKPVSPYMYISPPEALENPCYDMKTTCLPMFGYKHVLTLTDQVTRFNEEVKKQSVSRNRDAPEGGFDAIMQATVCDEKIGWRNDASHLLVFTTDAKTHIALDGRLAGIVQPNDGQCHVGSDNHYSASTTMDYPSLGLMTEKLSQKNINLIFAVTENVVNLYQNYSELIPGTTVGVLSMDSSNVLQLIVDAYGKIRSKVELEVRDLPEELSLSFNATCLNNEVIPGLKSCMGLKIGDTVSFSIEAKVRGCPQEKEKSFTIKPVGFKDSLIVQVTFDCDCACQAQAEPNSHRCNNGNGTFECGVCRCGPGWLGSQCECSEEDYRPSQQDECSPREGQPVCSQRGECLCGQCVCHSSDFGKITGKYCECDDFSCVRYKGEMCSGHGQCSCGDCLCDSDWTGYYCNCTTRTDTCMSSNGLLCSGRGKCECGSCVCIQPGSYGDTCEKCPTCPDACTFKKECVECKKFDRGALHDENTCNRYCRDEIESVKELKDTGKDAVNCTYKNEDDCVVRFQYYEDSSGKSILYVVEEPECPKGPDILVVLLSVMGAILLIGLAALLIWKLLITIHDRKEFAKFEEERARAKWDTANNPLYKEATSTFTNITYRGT
Description: (§1) In vitro Solid Phase Purified αvβ3 Binding Assay The vitronectin/αvβ3 binding assay methods were derived from Mehta et al. (Biochem J. 1998, 330, 861). Human αvβ3 (Chemicon International Inc., Temecula, Calif.), at a concentration of 1 μg/ml dissolved in Tris buffer (20 mM Tris, 1 mM CaCl2, 1 mM MgCl2, 10 μM MnCl2, 150 mM NaCl), was immobilized on Immulon 96 well plates (Dynex Technologies, Chantilly, Va.) overnight at 4° C. Plates were washed and treated with blocking buffer (3% BSA in Tris buffer) for 2 h at 37 C. Plates were then rinsed 2 times in Tris buffer containing 0.3% BSA and 0.2% Tween20 (polyoxyethylenesorbitan monolaurate). Five minutes prior to the addition of 5 nM vitronectin (Sigma, St. Louis, Mo.), compounds of the invention were added to wells in duplicate. Each plate included c-RGDfV as an internal control. Following a 3 hour incubation at 37° C., plates were washed 5 times in assay buffer. An anti-human vitronectin IgG rabbit polyclonal antibody (Calbiochem, San Diego, Calif.) was added (1:2000) and plates were incubated for 1 hour at room temperature. VectaStain ABC peroxidase kit reagents (Vector Laboratories, Burlingame, Calif.) employing a biotin labeled anti-rabbit IgG, were utilized for detection of bound antibody. Plates were read at 490 nm on a Molecular Devices (Sunnyvale, Calif.) microplate reader. […] The plate was covered and incubated overnight at 4° C. The GPIIb/IIIa solution was discarded and 150 μl of 5% BSA was added and incubated at RT for 1–3 h. The plate was washed extensively with modified Tyrodes buffer. Biotinylated fibrinogen (25 μl/well) at 2× final concentration was added to the wells that contain the test compounds (25 μl/well). The plate was covered and incubated at RT for 2–4 h. Twenty minutes prior to incubation completion, one drop of Reagent A (VectaStain ABC Horse Radish Peroxidase kit, Vector Laboratories, Inc.) and one drop Reagent B were added with mixing to 5 mL modified Tyrodes buffer mix and let stand. The ligand solution was discarded and the plate washed (5×200 μl/well) with modified Tyrodes buffer. Vecta Stain HRP-Biotin-Avidin reagent (50 μl/well, as prepared above) was added and incubated at RT for 15 min. The Vecta Stain solution was discarded and the wells washed (5×200 μl/well) with modified Tyrodes buffer. Developing buffer (10 mL of 50 mM citrate/phosphate buffer @ pH 5.3, 6 mg o-phenylenediamine, 6 μl 30% H2O2; 50 μl/well) was added and incubated at rt for 3–5 min, and then 2 N H2SO4 (50 μl/well) was added. The absorbance was read at 490 nm.

[2] = target: GPIIb/IIIa (Homo sapiens, UniProt P05106+P08514); experiment: In vitro solid phase purified glycoprotein IIb/IIIa binding assay (biotinylated fibrinogen); conditions: RGD-affinity purified GPIIb/IIIa, biotinylated fibrinogen; read-out: GPIIb/IIIa Binding IC50
GPIIb/IIIa, sequence (P08514 32-887 limits assumed): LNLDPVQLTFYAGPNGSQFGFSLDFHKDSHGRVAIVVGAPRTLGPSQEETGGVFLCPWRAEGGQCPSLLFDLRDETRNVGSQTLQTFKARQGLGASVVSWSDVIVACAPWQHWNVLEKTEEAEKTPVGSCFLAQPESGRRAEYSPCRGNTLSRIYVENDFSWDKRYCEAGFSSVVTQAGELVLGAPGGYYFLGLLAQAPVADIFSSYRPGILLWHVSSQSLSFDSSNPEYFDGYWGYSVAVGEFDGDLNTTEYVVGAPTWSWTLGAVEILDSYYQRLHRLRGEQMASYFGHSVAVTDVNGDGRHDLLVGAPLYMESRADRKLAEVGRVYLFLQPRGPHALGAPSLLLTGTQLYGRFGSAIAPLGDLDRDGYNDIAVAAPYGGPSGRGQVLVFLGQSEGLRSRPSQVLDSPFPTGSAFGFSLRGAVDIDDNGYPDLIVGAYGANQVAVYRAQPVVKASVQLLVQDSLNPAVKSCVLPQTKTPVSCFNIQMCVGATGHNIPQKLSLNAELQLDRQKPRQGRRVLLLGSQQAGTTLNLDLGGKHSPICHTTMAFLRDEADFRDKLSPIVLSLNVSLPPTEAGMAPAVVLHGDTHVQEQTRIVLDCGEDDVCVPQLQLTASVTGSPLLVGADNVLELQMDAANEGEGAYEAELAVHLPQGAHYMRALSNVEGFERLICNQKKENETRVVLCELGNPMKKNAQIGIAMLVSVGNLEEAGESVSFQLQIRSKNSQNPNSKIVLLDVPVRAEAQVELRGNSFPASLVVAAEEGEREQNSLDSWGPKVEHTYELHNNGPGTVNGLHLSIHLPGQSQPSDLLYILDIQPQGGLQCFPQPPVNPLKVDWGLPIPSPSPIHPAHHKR
GPIIb/IIIa, sequence (P08514 891-1039 partner limits assumed): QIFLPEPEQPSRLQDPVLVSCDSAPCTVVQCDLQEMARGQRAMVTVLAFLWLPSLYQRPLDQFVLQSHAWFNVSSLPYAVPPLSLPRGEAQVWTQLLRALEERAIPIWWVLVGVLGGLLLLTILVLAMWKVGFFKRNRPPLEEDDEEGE
GPIIb/IIIa, sequence (P05106 27-788): as the sequence (P05106 27-788) above
Description: as §1

Row | Structure (SMILES) | IC50 [1] [nM] | IC50 [2] [nM]
1 | COc1ccc(S(=O)(=O)N[C@@H](Cc2nc3ccc(/C=C/CNc4ccc(Cl)cn4)cc3c(=O)[nH]2)C(=O)O)cc1 [Compound 40, 6-[(1E)-3-[(5-chloro-2-pyridinyl)amino]-1-propenyl]-(αS)-3,4-dihydro-α-[[(4-methoxyphenyl)sulfonyl]amino]-4-oxo-2-quinazolinepropanoic acid] | 740 | 1900
2 | COC(=O)[C@H](Cc1nc2ccc(/C=C/CNC3=NCCN3)cc2c(=O)[nH]1)NS(=O)(=O)c1c(C)c(C)c(C)c(C)c1C [Compound 41, 6-[(1E)-3-[(4,5-dihydro-1H-imidazol-2-yl)amino]-1-propenyl]-(αS)-3,4-dihydro-4-oxo-α-[[(2,3,4,5,6-pentamethylphenyl)sulfonyl]amino]methyl ester 2-quinazolinepropanoic acid] | 19 | 240
3 | Cc1c(C)c(C)c(S(=O)(=O)N[C@@H](Cc2nc3ccc(/C=C/CCNC4=NCCN4)cc3c(=O)[nH]2)C(=O)O)c(C)c1C [Compound 42, 6-[(1E)-4-[(4,5-dihydro-1H-imidazol-2-yl)amino]-1-butenyl]-(αS)-3,4-dihydro-4-oxo-α-[[(2,3,4,5,6-pentamethylphenyl)sulfonyl]amino]-2-quinazolinepropanoic acid] | 5.4 | 60
4 | COc1ccc(S(=O)(=O)N[C@@H](Cc2nc3ccc(/C=C/CNc4ccc(C)cn4)cc3c(=O)[nH]2)C(=O)O)cc1OC [Compound 44, α-[[(3,4-dimethoxyphenyl)sulfonyl]amino]-(αS)-3,4-dihydro-6-[(1E)-3-[(5-methyl-2-pyridinyl)amino]-1-propenyl]-4-oxo-2-quinazolinepropanoic acid] | 24 | 790
5 | COc1ccc(S(=O)(=O)N[C@@H](Cc2nc3ccc(/C=C/CNc4cc(C)ccn4)cc3c(=O)[nH]2)C(=O)O)cc1OC [Compound 46, α-[[(3,4-dimethoxyphenyl)sulfonyl]amino]-(αS)-3,4-dihydro-6-[(1E)-3-[(4-methyl-2-pyridinyl)amino]-1-propenyl]-4-oxo-2-quinazolinepropanoic acid] | 5.8 | 740
6 | COc1ccc(S(=O)(=O)N[C@@H](Cc2nc3ccc(/C=C/CNC4=NCCN4)cc3c(=O)[nH]2)C(=O)O)cc1OC [Compound 48, 6-[(1E)-3-[(4,5-dihydro-1H-imidazol-2-yl)amino]-1-propenyl]-α-[[(3,4-dimethoxyphenyl)sulfonyl]amino]-(αS)-3,4-dihydro-4-oxo-2-quinazolinepropanoic acid] | 11 | 64
7 | Cc1c(C)c(C)c(S(=O)(=O)N[C@@H](Cc2nc3ccc(/C=C/CNC(=O)NCc4ccccc4)cc3c(=O)[nH]2)C(=O)O)c(C)c1C [Compound 49, (αS)-3,4-dihydro-4-oxo-α-[[(2,3,4,5,6-pentamethylphenyl)sulfonyl]amino]-6-[(1E)-3-[[(benzylamino)carbonyl]amino]-1-propenyl]-2-quinazolinepropanoic acid] | 8.8 | 820
8 | COc1ccc(S(=O)(=O)N[C@@H](Cc2nc3ccc(/C=C/CNC4=NCCN4)cc3c(=O)[nH]2)C(=O)O)cc1 [Compound 50, 6-[(1E)-3-[(4,5-dihydro-1H-imidazol-2-yl)amino]-1-propenyl]-(αS)-3,4-dihydro-α-[[(4-methoxyphenyl)sulfonyl]amino]-4-oxo-2-quinazolinepropanoic acid] | 6.8 | 51
9 | CCCCNC(=O)NC/C=C/c1ccc2nc(C[C@H](NS(=O)(=O)c3c(C)c(C)c(C)c(C)c3C)C(=O)O)[nH]c(=O)c2c1 [Compound 51, 6-[(1E)-3-[[(butylamino)carbonyl]amino]-1-propenyl]-(αS)-3,4-dihydro-4-oxo-α-[[(2,3,4,5,6-pentamethylphenyl)sulfonyl]amino]-2-quinazolinepropanoic acid] | 17 | 4800
10 | COc1ccc(S(=O)(=O)N[C@@H](Cc2nc3ccc(/C=C/CNC(=O)NCc4ccccc4)cc3c(=O)[nH]2)C(=O)O)cc1OC [Compound 54, α-[[(3,4-dimethoxyphenyl)sulfonyl]amino]-(αS)-3,4-dihydro-4-oxo-6-[(1E)-3-[[[(phenylmethyl)amino]carbonyl]amino]-1-propenyl]-2-quinazolinepropanoic acid] | 38 | 5000
11 | COc1ccc(S(=O)(=O)N[C@@H](Cc2nc3ccc(/C=C/CNC4=NCCC4)cc3c(=O)[nH]2)C(=O)O)cc1OC [Compound 55, 6-[(1E)-3-[(3,4-dihydro-2H-pyrrol-5-yl)amino]-1-propenyl]-α-[[(3,4-dimethoxyphenyl)sulfonyl]amino]-(αS)-3,4-dihydro-4-oxo-2-quinazolinepropanoic acid] | 42 | 270
12 | COc1cc(C)c(S(=O)(=O)N[C@@H](Cc2nc3ccc(/C=C/CNC(=O)NCc4ccccc4)cc3c(=O)[nH]2)C(=O)O)c(C)c1C [Compound 56, (αS)-3,4-dihydro-α-[[(4-methoxy-2,3,6-trimethylphenyl)sulfonyl]amino]-4-oxo-6-[(1E)-3-[[[(phenylmethyl)amino]carbonyl]amino]-1-propenyl]-2-quinazolinepropanoic acid] | 32 | 3900

Results, then the compound that gave them:

Row | IC50 [1] [nM] | IC50 [2] [nM] | Structure (SMILES)
13 | 1400 | 220 | Cc1cccnc1NC/C=C/c1ccc2nc(C[C@H](NS(=O)(=O)c3c(C)c(C)c(C)c(C)c3C)C(=O)O)[nH]c(=O)c2c1 [Compound 38, (αS)-3,4-dihydro-6-[(1E)-3-[(3-methyl-2-pyridinyl)amino]-1-propenyl]-4-oxo-α-[[(2,3,4,5,6-pentamethylphenyl)sulfonyl]amino]-2-quinazolinepropanoic acid]
14 | 1800 | 1800 | Cc1c(C)c(C)c(S(=O)(=O)N[C@@H](Cc2nc3ccc(/C=C/CNc4ccc(Cl)cn4)cc3c(=O)[nH]2)C(=O)O)c(C)c1C [Compound 39, 6-[(1E)-3-[(5-chloro-2-pyridinyl)amino]-1-propenyl]-(αS)-3,4-dihydro-4-oxo-α-[[(2,3,4,5,6-pentamethylphenyl)sulfonyl]amino]-2-quinazolinepropanoic acid]
15 | 22 | 880 | Cc1ccc(NC/C=C/c2ccc3nc(C[C@H](NS(=O)(=O)c4c(C)c(C)c(C)c(C)c4C)C(=O)O)[nH]c(=O)c3c2)nc1 [Compound 43, (αS)-3,4-dihydro-6-[(1E)-3-[(5-methyl-2-pyridinyl)amino]-1-propenyl]-4-oxo-α-[[(2,3,4,5,6-pentamethylphenyl)sulfonyl]amino]-2-quinazolinepropanoic acid]
16 | 15 | 1800 | Cc1ccnc(NC/C=C/c2ccc3nc(C[C@H](NS(=O)(=O)c4c(C)c(C)c(C)c(C)c4C)C(=O)O)[nH]c(=O)c3c2)c1 [Compound 45, (αS)-3,4-dihydro-6-[(1E)-3-[(4-methyl-2-pyridinyl)amino]-1-propenyl]-4-oxo-α-[[(2,3,4,5,6-pentamethylphenyl)sulfonyl]amino]-2-quinazolinepropanoic acid]
17 | 132 | 96 | Cc1c(C)c(C)c(S(=O)(=O)N[C@@H](Cc2nc3ccc(/C=C/CNC(=N)c4cccnc4)cc3c(=O)[nH]2)C(=O)O)c(C)c1C [Compound 47, (αS)-3,4-dihydro-6-[(1E)-3-[(imino-3-pyridinylmethyl)amino]-1-propenyl]-4-oxo-α-[[(2,3,4,5,6-pentamethylphenyl)sulfonyl]amino]-2-quinazolinepropanoic acid]
18 | 24 | 110 | Cc1c(C)c(C)c(S(=O)(=O)N[C@@H](Cc2nc3ccc(/C=C/CNC4=NCCCC4)cc3c(=O)[nH]2)C(=O)O)c(C)c1C [Compound 52, (αS)-3,4-dihydro-4-oxo-α-(α^2S)-[[(2,3,4,5,6-pentamethylphenyl)sulfonyl]amino]-6-[(1E)-3-[(3,4,5,6-tetrahydro-2-pyridinyl)amino]-1-propenyl]-2-quinazolinepropanoic acid]
19 | 31 | 200 | Cc1c(C)c(C)c(S(=O)(=O)N[C@@H](Cc2nc3ccc(/C=C/CNC(N)=O)cc3c(=O)[nH]2)C(=O)O)c(C)c1C [Compound 53, 6-[(1E)-3-[(aminocarbonyl)amino]-1-propenyl]-(αS)-3,4-dihydro-4-oxo-α-[[(2,3,4,5,6-pentamethylphenyl)sulfonyl]amino]-2-quinazolinepropanoic acid]
